From the NIST ThermoML archive (doi:10.1021/acs.jced.5b00820)

Test: xn = mol fraction of the nth substance listed
Conditions: 102.2 kPa, Liquid, Vibrating tube method

C[Si](C)(O[Si](C)(C)c1ccccc1)c1ccccc1 [1,3-diphenyltetramethyldisiloxane] + C[Si]1(C)O[Si](C)(C)O[Si](C)(C)O[Si](C)(C)O1
mass density [kg/m3]
Conditions | 308.15 K | 313.15 K | 318.15 K | 323.15 K | 328.15 K
x1 = 0.05 | 940.79 | 935.08 | 929.44 | 923.79 | 918.1
x1 = 0.0999 | 942.6 | 937.01 | 931.46 | 925.91 | 920.32
x1 = 0.1503 | 944.43 | 938.95 | 933.49 | 928.04 | 922.57
x1 = 0.2005 | 946.19 | 940.8 | 935.45 | 930.1 | 924.72
x1 = 0.2507 | 947.88 | 942.59 | 937.33 | 932.06 | 926.77
x1 = 0.2963 | 949.39 | 944.19 | 939.02 | 933.84 | 928.63
x1 = 0.3509 | 951.16 | 946.05 | 940.97 | 935.88 | 930.78
x1 = 0.4001 | 952.67 | 947.66 | 942.65 | 937.65 | 932.62
x1 = 0.4471 | 954.04 | 949.1 | 944.16 | 939.26 | 934.29
x1 = 0.4968 | 955.6 | 950.74 | 945.91 | 941.08 | 936.23
x1 = 0.5512 | 957.17 | 952.39 | 947.64 | 942.9 | 938.15
x1 = 0.6003 | 958.51 | 953.82 | 949.15 | 944.46 | 939.79
x1 = 0.6502 | 959.83 | 955.22 | 950.62 | 946.01 | 941.41
x1 = 0.7001 | 961.15 | 956.6 | 952.09 | 947.56 | 943.03
x1 = 0.7497 | 962.4 | 957.92 | 953.48 | 949.04 | 944.59
x1 = 0.8 | 963.64 | 959.25 | 954.87 | 950.49 | 946.11
x1 = 0.85 | 964.8 | 960.48 | 956.18 | 951.88 | 947.58
x1 = 0.896 | 965.82 | 961.53 | 957.3 | 953.03 | 948.8
x1 = 0.9497 | 967 | 962.79 | 958.63 | 954.45 | 950.29
x1 = 1 | 968.05 | 963.92 | 959.8 | 955.69 | 951.58

C[Si](C)(O[Si](C)(C)c1ccccc1)c1ccccc1 [1,3-diphenyltetramethyldisiloxane] + C=C[Si](C)(C)O[Si](C)(C)C=C
mass density [kg/m3]
Conditions | 308.15 K | 313.15 K | 318.15 K | 323.15 K | 328.15 K
x1 = 0.0502 | 809.57 | 804.7 | 799.79 | 794.89 | 789.94
x1 = 0.1 | 820.63 | 815.84 | 811.01 | 806.21 | 801.35
x1 = 0.1487 | 831.07 | 826.38 | 821.62 | 816.9 | 812.12
x1 = 0.2002 | 841.7 | 837.11 | 832.41 | 827.77 | 823.05
x1 = 0.2498 | 851.61 | 847.08 | 842.45 | 837.87 | 833.22
x1 = 0.3 | 861.28 | 856.78 | 852.19 | 847.66 | 843.06
x1 = 0.3503 | 870.64 | 866.2 | 861.68 | 857.2 | 852.68
x1 = 0.3994 | 879.46 | 875.05 | 870.55 | 866.12 | 861.63
x1 = 0.4502 | 888.32 | 883.96 | 879.52 | 875.17 | 870.72
x1 = 0.5001 | 896.73 | 892.42 | 888.02 | 883.7 | 879.29
x1 = 0.5498 | 904.84 | 900.61 | 896.23 | 891.95 | 887.57
x1 = 0.6002 | 912.8 | 908.56 | 904.21 | 899.93 | 895.59
x1 = 0.6502 | 920.47 | 916.26 | 911.95 | 907.71 | 903.38
x1 = 0.7004 | 927.9 | 923.73 | 919.47 | 915.27 | 911
x1 = 0.7504 | 935.1 | 930.94 | 926.72 | 922.51 | 918.26
x1 = 0.8003 | 942.07 | 937.9 | 933.7 | 929.52 | 925.3
x1 = 0.8498 | 948.8 | 944.66 | 940.48 | 936.33 | 932.14
x1 = 0.8986 | 955.23 | 951.09 | 946.94 | 942.83 | 938.64
x1 = 0.9502 | 961.82 | 957.69 | 953.57 | 949.47 | 945.33
x1 = 1 | 967.99 | 963.87 | 959.76 | 955.68 | 951.57
